Oligonucleotides are given in HELM: sugar(base)linkage, 5' to 3'; d 2'-deoxyribose, r ribose, m 2'-O-methylribose, p phosphate. ss, as = sense and antisense strand
Molecular target: UBE2K
Assay: reporter assay of Huesken 2005
Details: siRNA
Further: test concentration or dose not given here.

With “RNA1{r(A)p.r(A)p.r(A)p.r(U)p.r(C)p.r(C)p.r(C)p.r(G)p.r(A)p.r(A)p.r(A)p.r(U)p.r(G)p.r(U)p.r(U)p.r(C)p.r(A)p.r(A)p.r(A)p.d(T)p.d(T)}|RNA2{r(U)p.r(U)p.r(U)p.r(G)p.r(A)p.r(A)p.r(C)p.r(A)p.r(U)p.r(U)p.r(U)p.r(C)p.r(G)p.r(G)p.r(G)p.r(A)p.r(U)p.r(U)p.r(U)p.d(T)p.d(G)}$$$RNA1{StrandType:ss}|RNA2{StrandType:as}$” as the substance, how does the normalised inhibition (eCFP-eYFP dual reporter) read?
Its normalised inhibition (eCFP-eYFP dual reporter) is 73.8%.

“RNA1{r(A)p.r(A)p.r(G)p.r(G)p.r(A)p.r(G)p.r(G)p.r(A)p.r(A)p.r(G)p.r(A)p.r(U)p.r(A)p.r(C)p.r(C)p.r(A)p.r(A)p.r(C)p.r(U)p.d(T)p.d(T)}|RNA2{r(A)p.r(G)p.r(U)p.r(U)p.r(G)p.r(G)p.r(U)p.r(A)p.r(U)p.r(C)p.r(U)p.r(U)p.r(C)p.r(C)p.r(U)p.r(C)p.r(C)p.r(U)p.r(U)p.d(C)p.d(A)}$$$RNA1{StrandType:ss}|RNA2{StrandType:as}$” was tested. Which normalised inhibition (eCFP-eYFP dual reporter) did it give?
Its normalised inhibition (eCFP-eYFP dual reporter) is 68.1%.

“RNA1{r(A)p.r(A)p.r(G)p.r(U)p.r(A)p.r(G)p.r(A)p.r(U)p.r(C)p.r(U)p.r(U)p.r(G)p.r(U)p.r(A)p.r(G)p.r(A)p.r(U)p.r(G)p.r(A)p.d(T)p.d(T)}|RNA2{r(U)p.r(C)p.r(A)p.r(U)p.r(C)p.r(U)p.r(A)p.r(C)p.r(A)p.r(A)p.r(G)p.r(A)p.r(U)p.r(C)p.r(U)p.r(A)p.r(C)p.r(U)p.r(U)p.d(T)p.d(A)}$$$RNA1{StrandType:ss}|RNA2{StrandType:as}$” was tested. Which normalised inhibition (eCFP-eYFP dual reporter) did it give?
The normalised inhibition (eCFP-eYFP dual reporter) was 88.9%.

“RNA1{r(A)p.r(A)p.r(U)p.r(A)p.r(G)p.r(C)p.r(A)p.r(G)p.r(G)p.r(A)p.r(C)p.r(C)p.r(U)p.r(C)p.r(C)p.r(A)p.r(G)p.r(A)p.r(C)p.d(T)p.d(T)}|RNA2{r(G)p.r(U)p.r(C)p.r(U)p.r(G)p.r(G)p.r(A)p.r(G)p.r(G)p.r(U)p.r(C)p.r(C)p.r(U)p.r(G)p.r(C)p.r(U)p.r(A)p.r(U)p.r(U)p.d(T)p.d(C)}$$$RNA1{StrandType:ss}|RNA2{StrandType:as}$” was tested. Which normalised inhibition (eCFP-eYFP dual reporter) did it give?
The normalised inhibition (eCFP-eYFP dual reporter) was 56.1%.

With “RNA1{r(A)p.r(C)p.r(A)p.r(G)p.r(G)p.r(A)p.r(U)p.r(G)p.r(C)p.r(U)p.r(G)p.r(U)p.r(A)p.r(G)p.r(U)p.r(A)p.r(G)p.r(C)p.r(A)p.d(T)p.d(T)}|RNA2{r(U)p.r(G)p.r(C)p.r(U)p.r(A)p.r(C)p.r(U)p.r(A)p.r(C)p.r(A)p.r(G)p.r(C)p.r(A)p.r(U)p.r(C)p.r(C)p.r(U)p.r(G)p.r(U)p.d(G)p.d(G)}$$$RNA1{StrandType:ss}|RNA2{StrandType:as}$” as the substance, how does the normalised inhibition (eCFP-eYFP dual reporter) read?
The normalised inhibition (eCFP-eYFP dual reporter) was 89.9%.

How did the normalised inhibition (eCFP-eYFP dual reporter) turn out when “RNA1{r(A)p.r(C)p.r(U)p.r(A)p.r(A)p.r(A)p.r(A)p.r(U)p.r(A)p.r(U)p.r(G)p.r(G)p.r(C)p.r(A)p.r(U)p.r(C)p.r(C)p.r(U)p.r(A)p.d(T)p.d(T)}|RNA2{r(U)p.r(A)p.r(G)p.r(G)p.r(A)p.r(U)p.r(G)p.r(C)p.r(C)p.r(A)p.r(U)p.r(A)p.r(U)p.r(U)p.r(U)p.r(U)p.r(A)p.r(G)p.r(U)p.d(G)p.d(A)}$$$RNA1{StrandType:ss}|RNA2{StrandType:as}$” was run?
The normalised inhibition (eCFP-eYFP dual reporter) was 76%.

For “RNA1{r(A)p.r(C)p.r(U)p.r(A)p.r(U)p.r(U)p.r(G)p.r(G)p.r(C)p.r(A)p.r(G)p.r(C)p.r(U)p.r(G)p.r(C)p.r(A)p.r(G)p.r(A)p.r(G)p.d(T)p.d(T)}|RNA2{r(C)p.r(U)p.r(C)p.r(U)p.r(G)p.r(C)p.r(A)p.r(G)p.r(C)p.r(U)p.r(G)p.r(C)p.r(C)p.r(A)p.r(A)p.r(U)p.r(A)p.r(G)p.r(U)p.d(G)p.d(C)}$$$RNA1{StrandType:ss}|RNA2{StrandType:as}$”, which normalised inhibition (eCFP-eYFP dual reporter) is on record?
The normalised inhibition (eCFP-eYFP dual reporter) was 62%.

How did the normalised inhibition (eCFP-eYFP dual reporter) turn out when “RNA1{r(A)p.r(G)p.r(A)p.r(A)p.r(A)p.r(C)p.r(A)p.r(U)p.r(A)p.r(C)p.r(C)p.r(C)p.r(A)p.r(U)p.r(U)p.r(U)p.r(A)p.r(A)p.r(U)p.d(T)p.d(T)}|RNA2{r(A)p.r(U)p.r(U)p.r(A)p.r(A)p.r(A)p.r(U)p.r(G)p.r(G)p.r(G)p.r(U)p.r(A)p.r(U)p.r(G)p.r(U)p.r(U)p.r(U)p.r(C)p.r(U)p.d(G)p.d(G)}$$$RNA1{StrandType:ss}|RNA2{StrandType:as}$” was run?
Its normalised inhibition (eCFP-eYFP dual reporter) is 72.3%.

With “RNA1{r(A)p.r(G)p.r(A)p.r(C)p.r(A)p.r(C)p.r(A)p.r(C)p.r(C)p.r(A)p.r(U)p.r(A)p.r(U)p.r(G)p.r(A)p.r(A)p.r(G)p.r(G)p.r(A)p.d(T)p.d(T)}|RNA2{r(U)p.r(C)p.r(C)p.r(U)p.r(U)p.r(C)p.r(A)p.r(U)p.r(A)p.r(U)p.r(G)p.r(G)p.r(U)p.r(G)p.r(U)p.r(G)p.r(U)p.r(C)p.r(U)p.d(G)p.d(G)}$$$RNA1{StrandType:ss}|RNA2{StrandType:as}$” as the substance, how does the normalised inhibition (eCFP-eYFP dual reporter) read?
Its normalised inhibition (eCFP-eYFP dual reporter) is 81%.

How did the normalised inhibition (eCFP-eYFP dual reporter) turn out when “RNA1{r(A)p.r(G)p.r(A)p.r(U)p.r(G)p.r(A)p.r(U)p.r(C)p.r(C)p.r(A)p.r(C)p.r(A)p.r(G)p.r(G)p.r(A)p.r(U)p.r(G)p.r(C)p.r(U)p.d(T)p.d(T)}|RNA2{r(A)p.r(G)p.r(C)p.r(A)p.r(U)p.r(C)p.r(C)p.r(U)p.r(G)p.r(U)p.r(G)p.r(G)p.r(A)p.r(U)p.r(C)p.r(A)p.r(U)p.r(C)p.r(U)p.d(G)p.d(G)}$$$RNA1{StrandType:ss}|RNA2{StrandType:as}$” was run?
The normalised inhibition (eCFP-eYFP dual reporter) was 68%.

“RNA1{r(A)p.r(G)p.r(C)p.r(A)p.r(A)p.r(A)p.r(U)p.r(C)p.r(A)p.r(G)p.r(U)p.r(A)p.r(C)p.r(A)p.r(A)p.r(A)p.r(C)p.r(A)p.r(A)p.d(T)p.d(T)}|RNA2{r(U)p.r(U)p.r(G)p.r(U)p.r(U)p.r(U)p.r(G)p.r(U)p.r(A)p.r(C)p.r(U)p.r(G)p.r(A)p.r(U)p.r(U)p.r(U)p.r(G)p.r(C)p.r(U)p.d(A)p.d(C)}$$$RNA1{StrandType:ss}|RNA2{StrandType:as}$” was tested. Which normalised inhibition (eCFP-eYFP dual reporter) did it give?
Its normalised inhibition (eCFP-eYFP dual reporter) is 77.8%.

With “RNA1{r(A)p.r(G)p.r(G)p.r(A)p.r(C)p.r(C)p.r(U)p.r(C)p.r(C)p.r(A)p.r(G)p.r(A)p.r(C)p.r(A)p.r(C)p.r(A)p.r(C)p.r(C)p.r(A)p.d(T)p.d(T)}|RNA2{r(U)p.r(G)p.r(G)p.r(U)p.r(G)p.r(U)p.r(G)p.r(U)p.r(C)p.r(U)p.r(G)p.r(G)p.r(A)p.r(G)p.r(G)p.r(U)p.r(C)p.r(C)p.r(U)p.d(G)p.d(C)}$$$RNA1{StrandType:ss}|RNA2{StrandType:as}$” as the substance, how does the normalised inhibition (eCFP-eYFP dual reporter) read?
Its normalised inhibition (eCFP-eYFP dual reporter) is 74.6%.

“RNA1{r(A)p.r(G)p.r(G)p.r(A)p.r(G)p.r(A)p.r(A)p.r(A)p.r(U)p.r(A)p.r(G)p.r(C)p.r(A)p.r(G)p.r(G)p.r(A)p.r(C)p.r(C)p.r(U)p.d(T)p.d(T)}|RNA2{r(A)p.r(G)p.r(G)p.r(U)p.r(C)p.r(C)p.r(U)p.r(G)p.r(C)p.r(U)p.r(A)p.r(U)p.r(U)p.r(U)p.r(C)p.r(U)p.r(C)p.r(C)p.r(U)p.d(C)p.d(T)}$$$RNA1{StrandType:ss}|RNA2{StrandType:as}$” was tested. Which normalised inhibition (eCFP-eYFP dual reporter) did it give?
Its normalised inhibition (eCFP-eYFP dual reporter) is 69.4%.

For “RNA1{r(A)p.r(G)p.r(G)p.r(A)p.r(G)p.r(G)p.r(A)p.r(A)p.r(G)p.r(A)p.r(U)p.r(A)p.r(C)p.r(C)p.r(A)p.r(A)p.r(C)p.r(U)p.r(A)p.d(T)p.d(T)}|RNA2{r(U)p.r(A)p.r(G)p.r(U)p.r(U)p.r(G)p.r(G)p.r(U)p.r(A)p.r(U)p.r(C)p.r(U)p.r(U)p.r(C)p.r(C)p.r(U)p.r(C)p.r(C)p.r(U)p.d(T)p.d(C)}$$$RNA1{StrandType:ss}|RNA2{StrandType:as}$”, which normalised inhibition (eCFP-eYFP dual reporter) is on record?
Its normalised inhibition (eCFP-eYFP dual reporter) is 75.4%.

“RNA1{r(A)p.r(G)p.r(G)p.r(A)p.r(U)p.r(G)p.r(C)p.r(U)p.r(G)p.r(U)p.r(A)p.r(G)p.r(U)p.r(A)p.r(G)p.r(C)p.r(A)p.r(A)p.r(A)p.d(T)p.d(T)}|RNA2{r(U)p.r(U)p.r(U)p.r(G)p.r(C)p.r(U)p.r(A)p.r(C)p.r(U)p.r(A)p.r(C)p.r(A)p.r(G)p.r(C)p.r(A)p.r(U)p.r(C)p.r(C)p.r(U)p.d(G)p.d(T)}$$$RNA1{StrandType:ss}|RNA2{StrandType:as}$” was tested. Which normalised inhibition (eCFP-eYFP dual reporter) did it give?
Its normalised inhibition (eCFP-eYFP dual reporter) is 92.1%.

How did the normalised inhibition (eCFP-eYFP dual reporter) turn out when “RNA1{r(A)p.r(G)p.r(G)p.r(G)p.r(G)p.r(C)p.r(U)p.r(A)p.r(U)p.r(U)p.r(U)p.r(G)p.r(U)p.r(U)p.r(U)p.r(G)p.r(G)p.r(A)p.r(U)p.d(T)p.d(T)}|RNA2{r(A)p.r(U)p.r(C)p.r(C)p.r(A)p.r(A)p.r(A)p.r(C)p.r(A)p.r(A)p.r(A)p.r(U)p.r(A)p.r(G)p.r(C)p.r(C)p.r(C)p.r(C)p.r(U)p.d(G)p.d(T)}$$$RNA1{StrandType:ss}|RNA2{StrandType:as}$” was run?
Its normalised inhibition (eCFP-eYFP dual reporter) is 71%.

Which normalised inhibition (eCFP-eYFP dual reporter) does the source give for “RNA1{r(A)p.r(G)p.r(U)p.r(A)p.r(G)p.r(A)p.r(U)p.r(C)p.r(U)p.r(U)p.r(G)p.r(U)p.r(A)p.r(G)p.r(A)p.r(U)p.r(G)p.r(A)p.r(G)p.d(T)p.d(T)}|RNA2{r(C)p.r(U)p.r(C)p.r(A)p.r(U)p.r(C)p.r(U)p.r(A)p.r(C)p.r(A)p.r(A)p.r(G)p.r(A)p.r(U)p.r(C)p.r(U)p.r(A)p.r(C)p.r(U)p.d(T)p.d(T)}$$$RNA1{StrandType:ss}|RNA2{StrandType:as}$” here?
Its normalised inhibition (eCFP-eYFP dual reporter) is 88.2%.

Which normalised inhibition (eCFP-eYFP dual reporter) does the source give for “RNA1{r(A)p.r(U)p.r(A)p.r(C)p.r(C)p.r(A)p.r(A)p.r(C)p.r(U)p.r(A)p.r(G)p.r(A)p.r(G)p.r(A)p.r(U)p.r(A)p.r(A)p.r(A)p.r(A)p.d(T)p.d(T)}|RNA2{r(U)p.r(U)p.r(U)p.r(U)p.r(A)p.r(U)p.r(C)p.r(U)p.r(C)p.r(U)p.r(A)p.r(G)p.r(U)p.r(U)p.r(G)p.r(G)p.r(U)p.r(A)p.r(U)p.d(C)p.d(T)}$$$RNA1{StrandType:ss}|RNA2{StrandType:as}$” here?
Its normalised inhibition (eCFP-eYFP dual reporter) is 78.5%.

How did the normalised inhibition (eCFP-eYFP dual reporter) turn out when “RNA1{r(A)p.r(U)p.r(A)p.r(C)p.r(C)p.r(A)p.r(G)p.r(A)p.r(A)p.r(A)p.r(C)p.r(A)p.r(U)p.r(A)p.r(C)p.r(C)p.r(C)p.r(A)p.r(U)p.d(T)p.d(T)}|RNA2{r(A)p.r(U)p.r(G)p.r(G)p.r(G)p.r(U)p.r(A)p.r(U)p.r(G)p.r(U)p.r(U)p.r(U)p.r(C)p.r(U)p.r(G)p.r(G)p.r(U)p.r(A)p.r(U)p.d(T)p.d(T)}$$$RNA1{StrandType:ss}|RNA2{StrandType:as}$” was run?
The normalised inhibition (eCFP-eYFP dual reporter) was 76.3%.

For “RNA1{r(A)p.r(U)p.r(A)p.r(G)p.r(C)p.r(A)p.r(G)p.r(G)p.r(A)p.r(C)p.r(C)p.r(U)p.r(C)p.r(C)p.r(A)p.r(G)p.r(A)p.r(C)p.r(A)p.d(T)p.d(T)}|RNA2{r(U)p.r(G)p.r(U)p.r(C)p.r(U)p.r(G)p.r(G)p.r(A)p.r(G)p.r(G)p.r(U)p.r(C)p.r(C)p.r(U)p.r(G)p.r(C)p.r(U)p.r(A)p.r(U)p.d(T)p.d(T)}$$$RNA1{StrandType:ss}|RNA2{StrandType:as}$”, which normalised inhibition (eCFP-eYFP dual reporter) is on record?
Its normalised inhibition (eCFP-eYFP dual reporter) is 69.8%.
